In patent US20240325544A1, “CATIONIC LIPID FOR COVALENT MODIFICATION OF PEPTIDES” (PharmalN Corporation, priority 2023, published 2024):
Bridge positions count the residues as written; N and C are the ends. Square brackets hold non-standard residues; d marks the D form. Peptide text beside a SMILES is read from it. * marks the point of attachment. Palmitoyl = CCCCCCCCCCCCCCCC(=O)*; Dap = NC[C@H](N)C(=O)O; AEEA = NCCOCCOCC(=O)O

Test system: E0771 breast cancer cells
Experiment: Orthotopic mouse model of bone metastasis using breast cancer E0771 cells (FIG. 10)
Type: in vivo, mice
Description: FIGS. 10A-10B. […] Error bars indicate standard error of the mean. […] Also illustrated in this diagram are the corresponding schedules for each treatment administered throughout this study. From tumor implantation, SEQ ID NO: 31 treated groups (2, 3, 6, and 7) were dosed SC (0.3 mg/kg/0.1 μmol/kg in buffer 15 mM succinate, 4% (w/v) D-mannitol, 10 mM hydoxypropyl-beta-cyclodextrin pH 4.4) on Days 5-9, 12-16, 19-23, and 26-29; aPD1 treated groups (3, 5, and 7) were dosed IP (5 mg/kg) on Days 5, 7, 12, and 14; and irradiated groups (4, 5, 6, and 7) received buffer and 5 Gy of X-ray radiation in three sets at the bone on Days 5, 8, and 12. Survival was observed until Day 33, following scheduled sacrifice of remaining mice. At this point, tumor sizes were measured using calipers. […] All groups were significant compared to the control group, so statistical analysis was based on Log-rank (Mantel-Cox) test against group 5 (radiation+aPD1) using GraphPad Prism.
Animal care and treatment: Female C57BL/6J mice (6 weeks-old) were purchased from Oriental Bioservice (Kobe, Japan) and maintained under a 12-hour light/12-hour dark cycle with free access to water and standard mouse diet (CRF diet; Oriental Yeast Co., Ltd, Tokyo Japan). Implantation and drug administration: Mice were orthotopically implanted with E0771 breast cancer cells (Cosmo Bio Tokyo, Japan; 250,000 cells/mouse in RPMI1640 medium (Fujifilm, Tokyo Japan)) in their left mammary gland and E0771 mouse breast cancer cells (500,000 cells/mouse in 50% Matrigel (Corning, NY, USA, #354234)) in their femur. Mice were then randomized into several treatment groups: 1) control (n=5), 2) SEQ ID NO: 31 (n=5), 3) SEQ ID NO: 31 and aPD1 (n=5), 4) radiation (n=6), 5) radiation and aPD1 (n=5), 6) SEQ ID NO: 31 and radiation (n=6), 7) SEQ ID NO: 31, radiation, and aPD1 (n=6). […] Survival was monitored up to Day 33 (FIG. 10B) post cell inoculation, and following scheduled sacrifice of the remaining mice, tumors were harvested, and sizes were measured using calipers. […]

In the case of `CCCCCCCCCCCCCCCC(=O)NCCOCCOCC(=O)NCCOCCOCC(=O)NCCOCCOCC(=O)N[C@@H](CN)C(=O)N[C@@H](CN)C(=O)NCC(=O)N[C@@H](CC(C)C)C(=O)N[C@@H](CO)C(=O)N[C@@H](CCCCN)C(=O)NCC(=O)N[C@H]1CSSC[C@@H](C(=O)O)NC(=O)CNC(=O)[C@H](CC(C)C)NC(=O)CNC(=O)[C@H](CO)NC(=O)[C@H](CCC(N)=O)NC(=O)[C@H](CO)NC(=O)CNC(=O)[C@H]([C@@H](C)CC)NC(=O)[C@H](CCCNC(=N)N)NC(=O)[C@H](CC(=O)O)NC(=O)[C@H](CC(C)C)NC(=O)[C@H](CCCCN)NC(=O)[C@H](CC(C)C)NC(=O)CNC(=O)[C@H](Cc2ccccc2)NC1=O` [SEQ ID NO: 31] ({Palmitoyl-AEEA-AEEA-AEEA}-[Dap][Dap]GLSKGCFGLKLDRIGSQSGLGC-OH; disulfide 8-24; C-terminus assumed), the “Incidence of bone metastasis” value (addition of SEQ ID NO: 31 in all its respective groups) is reported as “reduced the incidence of bone metastasis”, the “Mice tumor free in the bone” value (group 6: SEQ ID NO: 31 + radiation) is reported as 5 out of 6 and the “Probability of survival vs group 5 (radiation+aPD1)” value (group 7: SEQ ID NO: 31 0.3 mg/kg SC + radiation + aPD1, to Day 33) is reported as “significant improvement in survival”. The “Mice tumor free in the bone” value (group 7: SEQ ID NO: 31 + radiation + aPD1) was 6 out of 6.
